This is an account of results in the NIST ThermoML archive (doi:10.1016/j.jct.2003.12.005).

± gives the expanded uncertainty stated by the source.

The conditions of the data set: 101.3 kPa, Liquid.

As to `CCCCCCCCCCCC` [dodecane], the mass density runs as follows: (293.15 K) 748.5 ± 0.5 kg/m3; (298.15 K) 744.9 ± 0.5 kg/m3; (303.15 K) 741.3 ± 0.5 kg/m3. For the same compound, the speed of sound reads like this: (293.15 K) 1297 ± 2 m/s; (298.15 K) 1278 ± 2 m/s; (303.15 K) 1259 ± 2 m/s. The viscosity by setting is: (293.15 K) 1.454 ± 0.023 mPa·s; (298.15 K) 1.327 ± 0.021 mPa·s; (303.15 K) 1.219 ± 0.02 mPa·s.

For `CCC(C)O` (configuration not stated) [butan-2-ol], under “293.15 K”, the mass density amounted to 806.8 ± 0.3 kg/m3, the speed of sound was 1230 ± 2 m/s and the viscosity is 3.623 ± 0.086 mPa·s. Besides, where the note is “298.15 K”, the mass density is listed as 802.7 ± 0.3 kg/m3, the speed of sound was found to be 1212 ± 2 m/s and the viscosity stood at 2.995 ± 0.072 mPa·s. Moreover, where the note is “303.15 K”, the mass density was determined as 798.5 ± 0.3 kg/m3, the speed of sound is on record as 1194 ± 2 m/s and the viscosity came to 2.493 ± 0.061 mPa·s.

Turning to `CCCCCCCCCC` [decane], under “293.15 K”, the mass density is recorded as 729.9 ± 0.5 kg/m3, the speed of sound was found to be 1254 ± 2 m/s and the viscosity stood at 0.911 ± 0.015 mPa·s. For the same compound, where the note is “298.15 K”, the mass density amounted to 726.1 ± 0.5 kg/m3, the speed of sound came to 1235 ± 2 m/s and the viscosity was determined as 0.845 ± 0.014 mPa·s. Also, for the setting “303.15 K”, the mass density was determined as 722.3 ± 0.5 kg/m3, the speed of sound amounted to 1215 ± 2 m/s and the viscosity was determined as 0.787 ± 0.013 mPa·s.

A word on the mass density: it is the mass of a sample divided by its volume. As a reminder, the speed of sound is how fast a sound wave travels through the sample. As usually defined, the viscosity is the resistance of a fluid to flow.
